The values that follow are results of earlier work, collected in patent US20230310447A1, “METHODS OF TREATING AGE-RELATED COGNITIVE DECLINE” (Woolsey Pharmaceuticals, Inc., priority 2020, published 2023).

The conditions of series [1]: 1-hydroxy (M3) metabolite, in vivo; Shibuya 2001.
Another series has as its system memory in aging rats. The note with it: eighteen-month old rats; 0.1875 or 0.3750 mg per day, single daily injection; radial maze.

As to `O=S(=O)(c1cccc2c(O)nccc12)N1CCCNCC1` [hydroxyfasudil], in series [1], the half-life entry was “about 8 hours”.

For the molecule hydroxyfasudil, the working memory result in the series on memory in aging rats was “improvements in working memory”.
